Legend:
[1] = system: SMARCA4, SMARCA2 and PBRM1 in 22Rv1 AUR-2 cells; experiment: Immunoblot of target degradation in 22Rv1 AUR-2 cells; type: cell-based, human; conditions: 4 h, AU-15330 1 µM, AU-24118 0.1 µM
Procedure: Lysates were prepared using radioimmunoprecipitation assay buffer (Thermo Fisher) with cOmpleteTM protease inhibitor cocktail tablets (Sigma-Aldrich) added. Total protein for each sample was determined using the DC Protein Assay (Bio-Rad) according to the manufacturer’s instructions. A standardized quantity of protein was resolved using NuPAGE Tris-Acetate Protein Gel (3 to 8%) (Thermo Fisher) or NuPAGE Bis-Tris Protein Gel (4 to 12%) (Thermo Fisher) and probed with primary antibodies as indicated. Following incubation with secondary antibodies conjugated with horseradish peroxidase, membranes were imaged on an Odyssey Fc Imager (LiCOR Biosciences).

[2] = In vivo pharmacokinetics in mice; conditions: mouse, plasma, oral, dose escalation (Fig. 1G)

Nc1nnc(-c2ccccc2O)cc1-c1ccc(N2CCC(N3CCC(c4ccc(OC5CCC(=O)NC5=O)cc4)CC3)CC2)cc1 (centres unmarked) [AU-24118]
degradation of SMARCA2 and PBRM1, immunoblot [1]: able to degrade SMARCA2 and PBRM1
degradation of SMARCA4, immunoblot [1]: unable to degrade SMARCA4
AUC(0-t) ([2]; 10mg/kg): 4930 ng·h/mL
AUC(0-t) ([2]; 100mg/kg): 32200 ng·h/mL
Cmax ([2]; 100mg/kg, read-out: Cmax/C0): 1930 ng/mL

Reference: article PMC11009648, “Development of an orally bioavailable mSWI/SNF ATPase degrader and acquired mechanisms of resistance in prostate cancer” (Proceedings of the National Academy of Sciences of the …, 2024)
